Results on 22 compounds are retold here after US12780800B1, “Triazole-pyridinyl substituted azacyclohexyl acetic acid compounds as LPA receptor antagonists” (Viva Star Biosciences Limited, priority 2021, dated 2022).

Structures are written as SMILES. A value given as a limit tells only on which side of the number the result lay.

One may read the IC50 as the concentration at which inhibition is half-maximal.

The target in the assay is T1, LPA1 (Homo sapiens, UniProt Q92633).
T1 construct: ProLink (PK) beta-galactosidase enzyme-fragment tag; host or cells: CHO-K1
T1 sequence (Q92633 whole entry, the tested form may be a part): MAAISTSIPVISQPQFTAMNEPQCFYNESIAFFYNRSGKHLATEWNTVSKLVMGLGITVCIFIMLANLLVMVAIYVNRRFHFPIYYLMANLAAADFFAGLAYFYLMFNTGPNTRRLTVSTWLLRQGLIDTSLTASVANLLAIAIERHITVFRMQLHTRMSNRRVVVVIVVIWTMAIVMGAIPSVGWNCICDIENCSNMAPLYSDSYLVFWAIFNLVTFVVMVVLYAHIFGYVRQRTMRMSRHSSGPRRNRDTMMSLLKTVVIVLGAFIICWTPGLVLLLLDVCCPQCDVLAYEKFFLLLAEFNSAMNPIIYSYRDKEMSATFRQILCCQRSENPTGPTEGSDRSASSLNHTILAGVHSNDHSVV
The experiment in a line: LPA1 calcium flux assay (LPA1 functional antagonist assay). Type of assay: cell-based. Particulars: PathHunter CHO-K1 EDG2 β-Arrestin cell line; calcium indicator dye; stimulated with EC80 concentration of LPA; FLIPR Tetra. The protocol:
Following overnight culture, cells were loaded with calcium indicator dye from the HitHunter Calcium No WashPLUS Assay kit (Eurofins DiscoverX Corporation, Cat #93-0091) for 45 minutes at 37° C. […] After compound addition, assay plates were equilibrated to room temperature for 30 minutes. […] IC50 values were determined by Chemical and Biological Information System from ChemInnovation Software, Inc. The compounds of this invention were tested for their activity to inhibit LPA1 as determined in an LPA1 functional antagonist assay as described herein.
Turning to `CCCc1ccc(=O)n(Cc2c(-c3ccc(N4C[C@@H](F)C[C@H](CC(=O)O)C4)c(CC)n3)nnn2C)c1` (single isomer, unassigned) [Example 45, 2-((3S,5S) or (3R,5R)-1-(2-ethyl-6-(1-methyl-5-((2-oxo-5-propylpyridin-1(2H)-yl)methyl)-1H-1,2,3-triazol-4-yl)pyridin-3-yl)-5-fluoropiperidin-3-yl)acetic acid], the half-maximal inhibitory concentration (IC50) fell in the range of 100 to 500 nM. The figure for `CCCc1ccc(=O)n(Cc2c(-c3ccc(N4C[C@H](F)C[C@@H](CC(=O)O)C4)c(CC)n3)nnn2C)c1` (single isomer, unassigned) [Example 46, 2-((3R,5R) or (33,5S)-1-(2-ethyl-6-(1-methyl-5-((2-oxo-5-propylpyridin-1(2H)-yl)methyl)-1H-1,2,3-triazol-4-yl)pyridin-3-yl)-5-fluoropiperidin-3-yl)acetic acid] is above 5000 nM.

On to `CCCc1ccc(=O)n(Cc2c(-c3ccc(N4CCCC(CC(=O)O)C4=O)c(CC)n3)nnn2C)c1` (single isomer, unassigned) [Example 52, (R) or (S)-2-(1-(2-ethyl-6-(1-methyl-5-((2-oxo-5-propylpyridin-1(2H)-yl)methyl)-1H-1,2,3-triazol-4-yl)pyridin-3-yl)-2-oxopiperidin-3-yl)acetic acid], for which the concentration for half-maximal inhibition (IC50) lay in the range of 500 to 5000 nM. The figure for `CCCc1ccc(=O)n(Cc2c(-c3ccc(N4CCCC(CC(=O)O)C4=O)c(CC)n3)nnn2C)c1` (single isomer, unassigned) [Example 53, (S) or (R)-2-(1-(2-ethyl-6-(1-methyl-5-((2-oxo-5-propylpyridin-1(2H)-yl)methyl)-1H-1,2,3-triazol-4-yl)pyridin-3-yl)-2-oxopiperidin-3-yl)acetic acid] is above 5000 nM; for `CCCc1ccc(=O)n(Cc2c(-c3ccc(N4CC(CC(=O)O)CCC4=O)c(CC)n3)nnn2C)c1` (single isomer, unassigned) [Example 54, (R) or (S)-2-(1-(2-ethyl-6-(1-methyl-5-((2-oxo-5-propylpyridin-1(2H)-yl)methyl)-1H-1,2,3-triazol-4-yl)pyridin-3-yl)-6-oxopiperidin-3-yl)acetic acid] it is above 5000 nM; for `CCCc1ccc(=O)n(Cc2c(-c3ccc(N4CC(CC(=O)O)CCC4=O)c(CC)n3)nnn2C)c1` (single isomer, unassigned) [Example 55, (S) or (R)-2-(1-(2-ethyl-6-(1-methyl-5-((2-oxo-5-propylpyridin-1(2H)-yl)methyl)-1H-1,2,3-triazol-4-yl)pyridin-3-yl)-6-oxopiperidin-3-yl)acetic acid] it is above 5000 nM.

With `CCc1nc(-c2nnn(C)c2COc2nccc(C3CCC3)n2)ccc1N1CC(CC(=O)O)CCC1=O` (single isomer, unassigned) [Example 91, (R) or (S)-2-(1-(6-(5-(((4-cyclobutylpyrimidin-2-yl)oxy)methyl)-1-methyl-1H-1,2,3-triazol-4-yl)-2-ethylpyridin-3-yl)-6-oxopiperidin-3-yl)acetic acid], the half-inhibitory concentration (IC50) was above 5000 nM. The figure for `CCc1nc(-c2nnn(C)c2COc2nccc(C3CCC3)n2)ccc1N1CC(CC(=O)O)CCC1=O` (single isomer, unassigned) [Example 92, (S) or (R)-2-(1-(6-(5-(((4-cyclobutylpyrimidin-2-yl)oxy)methyl)-1-methyl-1H-1,2,3-triazol-4-yl)-2-ethylpyridin-3-yl)-6-oxopiperidin-3-yl)acetic acid] is above 5000 nM; for `CCc1nc(-c2nnn(C)c2COc2nccc(C3CCC3)n2)ccc1N1CCCC(CC(=O)O)C1=O` (single isomer, unassigned) [Example 93, (R) or (S)-2-(1-(6-(5-(((4-cyclobutylpyrimidin-2-yl)oxy)methyl)-1-methyl-1H-1,2,3-triazol-4-yl)-2-ethylpyridin-3-yl)-2-oxopiperidin-3-yl)acetic acid] it is 100 to 500 nM; for `CCc1nc(-c2nnn(C)c2COc2nccc(C3CCC3)n2)ccc1N1CCCC(CC(=O)O)C1=O` (single isomer, unassigned) [Example 94, (S) or (R)-2-(1-(6-(5-(((4-cyclobutylpyrimidin-2-yl)oxy)methyl)-1-methyl-1H-1,2,3-triazol-4-yl)-2-ethylpyridin-3-yl)-2-oxopiperidin-3-yl)acetic acid] it is 500 to 5000 nM. As for `Cc1nc(-c2nnn(C)c2COc2nccc(C3CCC3)n2)ccc1CN1CC(C(=O)O)CC(F)(F)C1` (single isomer, unassigned) [Example 147, (S) or (R)-1-((6-(5-(((4-cyclobutylpyrimidin-2-yl)oxy)methyl)-1-methyl-1H-1,2,3-triazol-4-yl)-2-methylpyridin-3-yl)methyl)-5,5-difluoropiperidine-3-carboxylic acid], the 50% inhibitory concentration (IC50) is below 100 nM. The figure for `Cc1nc(-c2nnn(C)c2COc2nccc(C3CCC3)n2)ccc1CN1CC(C(=O)O)CC(F)(F)C1` (single isomer, unassigned) [Example 148, (R) or (S)-1-((6-(5-(((4-cyclobutylpyrimidin-2-yl)oxy)methyl)-1-methyl-1H-1,2,3-triazol-4-yl)-2-methylpyridin-3-yl)methyl)-5,5-difluoropiperidine-3-carboxylic acid] is below 100 nM; for `CCCc1ccc(=O)n(Cc2c(-c3ccc(CN4CC(C(=O)O)CC(F)(F)C4)c(CC)n3)nnn2C)c1` (single isomer, unassigned) [Example 149, (S) or (R)-1-((2-ethyl-6-(1-methyl-5-((2-oxo-5-propylpyridin-1(2H)-yl)methyl)-1H-1,2,3-triazol-4-yl)pyridin-3-yl)methyl)-5,5-difluoropiperidine-3-carboxylic acid] it is 100 to 500 nM; for `CCCc1ccc(=O)n(Cc2c(-c3ccc(CN4CC(C(=O)O)CC(F)(F)C4)c(CC)n3)nnn2C)c1` (single isomer, unassigned) [Example 150, (R) or (S)-1-((2-ethyl-6-(1-methyl-5-((2-oxo-5-propylpyridin-1(2H)-yl)methyl)-1H-1,2,3-triazol-4-yl)pyridin-3-yl)methyl)-5,5-difluoropiperidine-3-carboxylic acid] it is 100 to 500 nM. The figure for `CCc1nc(-c2nnn(C)c2COc2nccc(C3CCC3)n2)ccc1CN1CC(C(=O)O)CC(F)(F)C1` (single isomer, unassigned) [Example 152, (S) or (R)-1-((6-(5-(((4-cyclobutylpyrimidin-2-yl)oxy)methyl)-1-methyl-1H-1,2,3-triazol-4-yl)-2-ethylpyridin-3-yl)methyl)-5,5-difluoropiperidine-3-carboxylic acid] is below 100 nM; for `CCc1nc(-c2nnn(C)c2COc2nccc(C3CCC3)n2)ccc1CN1CC(C(=O)O)CC(F)(F)C1` (single isomer, unassigned) [Example 153, (R) or (S)-1-((6-(5-(((4-cyclobutylpyrimidin-2-yl)oxy)methyl)-1-methyl-1H-1,2,3-triazol-4-yl)-2-ethylpyridin-3-yl)methyl)-5,5-difluoropiperidine-3-carboxylic acid] it is 500 to 5000 nM. The figure for `CCc1nc(-c2nnn(C)c2Cn2cc(CC(C)C)ccc2=O)ccc1CN1CC(C(=O)O)CC(F)(F)C1` (single isomer, unassigned) [Example 154, (S) or (R)-1-((2-ethyl-6-(5-((5-isobutyl-2-oxopyridin-1(2H)-yl)methyl)-1-methyl-1H-1,2,3-triazol-4-yl)pyridin-3-yl)methyl)-5,5-difluoropiperidine-3-carboxylic acid] is 100 to 500 nM.

For the compound `CCc1nc(-c2nnn(C)c2Cn2cc(CC(C)C)ccc2=O)ccc1CN1CC(C(=O)O)CC(F)(F)C1` (single isomer, unassigned) [Example 155, (R) or (S)-1-((2-ethyl-6-(5-((5-isobutyl-2-oxopyridin-1(2H)-yl)methyl)-1-methyl-1H-1,2,3-triazol-4-yl)pyridin-3-yl)methyl)-5,5-difluoropiperidine-3-carboxylic acid], the concentration for half-maximal inhibition (IC50) was 500 to 5000 nM. The figure for `CCCc1ccc(=O)n(Cc2c(-c3ccc(CN4CC(C(=O)O)CC(F)(F)C4)c(C)n3)nnn2C)c1` (single isomer, unassigned) [Example 156, (S) or (R)-5,5-difluoro-1-((2-methyl-6-(1-methyl-5-((2-oxo-5-propylpyridin-1(2H)-yl)methyl)-1H-1,2,3-triazol-4-yl)pyridin-3-yl)methyl)piperidine-3-carboxylic acid] is 100 to 500 nM; for `CCCc1ccc(=O)n(Cc2c(-c3ccc(CN4CC(C(=O)O)CC(F)(F)C4)c(C)n3)nnn2C)c1` (single isomer, unassigned) [Example 157, (R) or (S)-5,5-difluoro-1-((2-methyl-6-(1-methyl-5-((2-oxo-5-propylpyridin-1(2H)-yl)methyl)-1H-1,2,3-triazol-4-yl)pyridin-3-yl)methyl)piperidine-3-carboxylic acid] it is 500 to 5000 nM; for `CCCc1cnn(Cc2c(-c3ccc(CN4CC(C(=O)O)CC(F)(F)C4)c(C)n3)nnn2C)c(=O)c1` (single isomer, unassigned) [Example 158, (S) or (R)-5,5-difluoro-1-((2-methyl-6-(1-methyl-5-((6-oxo-4-propylpyridazin-1(6H)-yl)methyl)-1H-1,2,3-triazol-4-yl)pyridin-3-yl)methyl)piperidine-3-carboxylic acid] it is above 5000 nM.

Take `CCCc1cnn(Cc2c(-c3ccc(CN4CC(C(=O)O)CC(F)(F)C4)c(C)n3)nnn2C)c(=O)c1` (single isomer, unassigned) [Example 159, (R) or (S)-5,5-difluoro-1-((2-methyl-6-(1-methyl-5-((6-oxo-4-propylpyridazin-1(6H)-yl)methyl)-1H-1,2,3-triazol-4-yl)pyridin-3-yl)methyl)piperidine-3-carboxylic acid]: the concentration for half-maximal inhibition (IC50) was above 5000 nM.
